From patent US20220281848A1, “PYRAZOLE-SUBSTITUTED PYRROLIDINONES AS HERBICIDES” (FMC Corporation, priority 2019, published 2022)

Test system: plants
Test: Test D pre-emergence, other plants of Tables D1 and D3
Assay type: in vivo
Details: preemergent, 20 DAA
How it was run: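 Seeds treated with herbicide safener; sown in soil; glasshouse, 16 h light, 65% humidity. Sprayed day 1 (pre) or ~day 12 (post). Spray in 0.2% v/v adjuvant. Scored 0–100 damage: 20 DAA pre, 15 d post.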

CN1C[C@H](c2nn(C)c3c(F)cccc23)[C@@H](C(=O)Nc2cccc(F)c2F)C1=O [Compound 2]
damage to plant (100=total damage to plant; 0=no damage to plant), ABUTH (rate 15): 0 | damage to plant (100=total damage to plant; 0=no damage to plant), ABUTH (rate 30): 0 | damage to plant (100=total damage to plant; 0=no damage to plant), ABUTH (rate 60): 0 | damage to plant (100=total damage to plant; 0=no damage to plant), ABUTH (rate 130): 0 | damage to plant (100=total damage to plant; 0=no damage to plant), ABUTH (rate 250): 0 | damage to plant (100=total damage to plant; 0=no damage to plant), ABUTH (rate 500): 20 | damage to plant (100=total damage to plant; 0=no damage to plant), AMARE (rate 15): 0 | damage to plant (100=total damage to plant; 0=no damage to plant), AMARE (rate 30): 0 | damage to plant (100=total damage to plant; 0=no damage to plant), AMARE (rate 60): 0 | damage to plant (100=total damage to plant; 0=no damage to plant), AMARE (rate 130): 0 | damage to plant (100=total damage to plant; 0=no damage to plant), AMARE (rate 250): 0 | damage to plant (100=total damage to plant; 0=no damage to plant), AMARE (rate 500): 0 | damage to plant (100=total damage to plant; 0=no damage to plant), BIDPI (rate 15): 0 | damage to plant (100=total damage to plant; 0=no damage to plant), BIDPI (rate 30): 0 | damage to plant (100=total damage to plant; 0=no damage to plant), BIDPI (rate 60): 0 | damage to plant (100=total damage to plant; 0=no damage to plant), BIDPI (rate 130): 0 | damage to plant (100=total damage to plant; 0=no damage to plant), BIDPI (rate 250): 0 | damage to plant (100=total damage to plant; 0=no damage to plant), BIDPI (rate 500): 0 | damage to plant (100=total damage to plant; 0=no damage to plant), BRAPL (rate 15): 0 | damage to plant (100=total damage to plant; 0=no damage to plant), BRAPL (rate 30): 70 | damage to plant (100=total damage to plant; 0=no damage to plant), BRAPL (rate 60): 80 | damage to plant (100=total damage to plant; 0=no damage to plant), BRAPL (rate 130): 80 | damage to plant (100=total damage to plant; 0=no damage to plant), BRAPL (rate 250): 90 | damage to plant (100=total damage to plant; 0=no damage to plant), BRAPL (rate 500): 90 | damage to plant (100=total damage to plant; 0=no damage to plant), CYPES (rate 15): 0 | damage to plant (100=total damage to plant; 0=no damage to plant), CYPES (rate 30): 0 | damage to plant (100=total damage to plant; 0=no damage to plant), CYPES (rate 60): 0 | damage to plant (100=total damage to plant; 0=no damage to plant), CYPES (rate 130): 0 | damage to plant (100=total damage to plant; 0=no damage to plant), CYPES (rate 250): 0 | damage to plant (100=total damage to plant; 0=no damage to plant), CYPES (rate 500): 0 | damage to plant (100=total damage to plant; 0=no damage to plant), DIGSA (rate 15): 0 | damage to plant (100=total damage to plant; 0=no damage to plant), DIGSA (rate 30): 90 | damage to plant (100=total damage to plant; 0=no damage to plant), DIGSA (rate 60): 90 | damage to plant (100=total damage to plant; 0=no damage to plant), DIGSA (rate 130): 90 | damage to plant (100=total damage to plant; 0=no damage to plant), DIGSA (rate 250): 90 | damage to plant (100=total damage to plant; 0=no damage to plant), DIGSA (rate 500): 90 | damage to plant (100=total damage to plant; 0=no damage to plant), ECHCG (rate 15): 50 | damage to plant (100=total damage to plant; 0=no damage to plant), ECHCG (rate 30): 50 | damage to plant (100=total damage to plant; 0=no damage to plant), ECHCG (rate 60): 80 | damage to plant (100=total damage to plant; 0=no damage to plant), ECHCG (rate 130): 90 | damage to plant (100=total damage to plant; 0=no damage to plant), ECHCG (rate 250): 90 | damage to plant (100=total damage to plant; 0=no damage to plant), ECHCG (rate 500): 90 | damage to plant (100=total damage to plant; 0=no damage to plant), ELEIN (rate 15): 0 | damage to plant (100=total damage to plant; 0=no damage to plant), ELEIN (rate 30): 0 | damage to plant (100=total damage to plant; 0=no damage to plant), ELEIN (rate 60): 0 | damage to plant (100=total damage to plant; 0=no damage to plant), ELEIN (rate 130): 0 | damage to plant (100=total damage to plant; 0=no damage to plant), ELEIN (rate 250): 0 | damage to plant (100=total damage to plant; 0=no damage to plant), ELEIN (rate 500): 0 | damage to plant (100=total damage to plant; 0=no damage to plant), EPHHL (rate 15): 0 | damage to plant (100=total damage to plant; 0=no damage to plant), EPHHL (rate 30): 0 | damage to plant (100=total damage to plant; 0=no damage to plant), EPHHL (rate 60): 0 | damage to plant (100=total damage to plant; 0=no damage to plant), EPHHL (rate 130): 0 | damage to plant (100=total damage to plant; 0=no damage to plant), EPHHL (rate 250): 0 | damage to plant (100=total damage to plant; 0=no damage to plant), EPHHL (rate 500): 10 | damage to plant (100=total damage to plant; 0=no damage to plant), GLXMA (rate 15): 0 | damage to plant (100=total damage to plant; 0=no damage to plant), GLXMA (rate 30): 0 | damage to plant (100=total damage to plant; 0=no damage to plant), GLXMA (rate 60): 0 | damage to plant (100=total damage to plant; 0=no damage to plant), GLXMA (rate 130): 0 | damage to plant (100=total damage to plant; 0=no damage to plant), GLXMA (rate 250): 0 | damage to plant (100=total damage to plant; 0=no damage to plant), GLXMA (rate 500): 0 | damage to plant (100=total damage to plant; 0=no damage to plant), IPOHE (rate 15): 0 | damage to plant (100=total damage to plant; 0=no damage to plant), IPOHE (rate 30): 0 | damage to plant (100=total damage to plant; 0=no damage to plant), IPOHE (rate 60): 0 | damage to plant (100=total damage to plant; 0=no damage to plant), IPOHE (rate 130): 0 | damage to plant (100=total damage to plant; 0=no damage to plant), IPOHE (rate 250): 0 | damage to plant (100=total damage to plant; 0=no damage to plant), IPOHE (rate 500): 0 | damage to plant (100=total damage to plant; 0=no damage to plant), ORYSA (rate 15): 0 | damage to plant (100=total damage to plant; 0=no damage to plant), ORYSA (rate 30): 0 | damage to plant (100=total damage to plant; 0=no damage to plant), ORYSA (rate 60): 0 | damage to plant (100=total damage to plant; 0=no damage to plant), ORYSA (rate 130): 0 | damage to plant (100=total damage to plant; 0=no damage to plant), ORYSA (rate 250): 0 | damage to plant (100=total damage to plant; 0=no damage to plant), ORYSA (rate 500): 0 | damage to plant (100=total damage to plant; 0=no damage to plant), PANMI (rate 15): 0 | damage to plant (100=total damage to plant; 0=no damage to plant), PANMI (rate 30): 0 | damage to plant (100=total damage to plant; 0=no damage to plant), PANMI (rate 60): 0 | damage to plant (100=total damage to plant; 0=no damage to plant), PANMI (rate 130): 0 | damage to plant (100=total damage to plant; 0=no damage to plant), PANMI (rate 250): 0 | damage to plant (100=total damage to plant; 0=no damage to plant), PANMI (rate 500): 0 | damage to plant (100=total damage to plant; 0=no damage to plant), SETFA (rate 15): 0 | damage to plant (100=total damage to plant; 0=no damage to plant), SETFA (rate 30): 80 | damage to plant (100=total damage to plant; 0=no damage to plant), SETFA (rate 60): 80 | damage to plant (100=total damage to plant; 0=no damage to plant), SETFA (rate 130): 80 | damage to plant (100=total damage to plant; 0=no damage to plant), SETFA (rate 250): 80 | damage to plant (100=total damage to plant; 0=no damage to plant), SETFA (rate 500): 90 | damage to plant (100=total damage to plant; 0=no damage to plant), SIDSP (rate 15): 0 | damage to plant (100=total damage to plant; 0=no damage to plant), SIDSP (rate 30): 0 | damage to plant (100=total damage to plant; 0=no damage to plant), SIDSP (rate 60): 0 | damage to plant (100=total damage to plant; 0=no damage to plant), SIDSP (rate 130): 0 | damage to plant (100=total damage to plant; 0=no damage to plant), SIDSP (rate 250): 0 | damage to plant (100=total damage to plant; 0=no damage to plant), SIDSP (rate 500): 0 | damage to plant (100=total damage to plant; 0=no damage to plant), SORVU (rate 15): 0 | damage to plant (100=total damage to plant; 0=no damage to plant), SORVU (rate 30): 0 | damage to plant (100=total damage to plant; 0=no damage to plant), SORVU (rate 60): 0
